Patent US12674795B2, “Method for peritoneal metastatic cell detection and isolation thereof” (THE UNIVERSITY OF HONG KONG, priority 2019, dated 2026)

Key:
P-selectin = biological target: T1, P-selectin (Mus musculus, UniProt Q01102); assay: Adhesion of tumor cells to the mouse peritoneum; assay type: in vivo; details: 1 mg kg^-1 i.p. 1 h prior to injection of M-CSCs from SKOV-3 and ovarian cancer patients; NOD/SCID mice
T1 construct: from tissue; host or cells: peritoneum, mesentery and omentum of living NOD/SCID mice
T1 sequence (Q01102 42-768): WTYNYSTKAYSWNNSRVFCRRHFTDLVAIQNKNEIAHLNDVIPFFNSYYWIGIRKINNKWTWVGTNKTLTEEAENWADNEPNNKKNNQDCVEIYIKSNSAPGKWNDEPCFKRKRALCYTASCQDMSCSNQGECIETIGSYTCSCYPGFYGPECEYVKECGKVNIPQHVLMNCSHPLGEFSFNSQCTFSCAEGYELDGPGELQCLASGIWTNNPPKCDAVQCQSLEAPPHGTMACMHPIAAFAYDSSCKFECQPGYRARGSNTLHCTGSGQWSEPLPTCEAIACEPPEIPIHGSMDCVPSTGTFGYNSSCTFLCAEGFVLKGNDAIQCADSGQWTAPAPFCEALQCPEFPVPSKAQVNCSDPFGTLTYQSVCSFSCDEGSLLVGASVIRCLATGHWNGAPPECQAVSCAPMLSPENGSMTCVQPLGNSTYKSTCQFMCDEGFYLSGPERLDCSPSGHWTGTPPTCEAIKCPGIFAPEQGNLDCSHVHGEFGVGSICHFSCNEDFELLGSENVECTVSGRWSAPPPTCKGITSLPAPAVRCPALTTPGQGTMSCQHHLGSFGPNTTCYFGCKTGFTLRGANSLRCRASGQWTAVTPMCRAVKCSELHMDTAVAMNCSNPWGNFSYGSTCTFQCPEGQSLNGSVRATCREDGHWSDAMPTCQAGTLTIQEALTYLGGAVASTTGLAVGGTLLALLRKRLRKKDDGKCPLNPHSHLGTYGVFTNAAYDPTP
Procedure: M-CSCs (1×10^7) derived from SKOV-3 and ovarian cancer patients were fluorescently labeled with CMFDA and i.p. injected into NOD/SCID mice. To inhibit P-selectin, KF38789 (1 mg kg^−1, 2748, Tocris) or vehicle control were injected into the peritoneal cavity of mice 1 h prior to cell injection. Mice were sacrificed after 16 h and the peritoneal cavity was washed with PBS to remove non-adherent cells. Fluorescent signal from adherent tumor cells was acquired in the IVIS Spectrum and peritoneum, mesentery, and omentum were lysed with 1% NP-40 and fluorescence was measured with VICTOR (PerkinElmer).

M-CSC-HPMC interaction = assay: Microfluidic perfusion assay of M-CSCs on HPMC-coated channels under shear stress; assay type: cell-based, human; details: for effect on M-CSCs binding/adhesion to HPMCs: M-CSCs treated before perfusion, result in words
Procedure: (§1) Microfluidic chips were fabricated as described^13. To coat microfluidic channels with selectin recombinant proteins, channels were incubated with 1 μg mL^−1 selectin-Fc recombinant proteins in PBS at 4° C. overnight. To coat microfluidic channels with HPMCs, channels were incubated with 10 μg mL^−1 human fibronectin in serum free medium overnight at 4° C. After wash, the channels were introduced with HPMCs suspension (3.5×10^6 mL^−1) and cultured overnight under C02 incubator at 37° C. To functionally block selectins, HPMCs were incubated with 20 μg mL^−1 anti-E-selectin, anti-P-selectin, anti-L-selectin or isotype antibody at room temperature for 1 h before the assays.
(§2) CSCs of 70-100 μm diameter were collected with cell strainer, fluorescently labeled with CMFDA Celltracker (2.5 μg mL^−1, C7025, Life Technologies) as per manufacturer's instructions for assays. Fluorescently labeled CSCs resuspended in binding buffer (1500 spheroids mL^−1) were perfused into the microfluidic channel through a syringe pump (LongerPump) under desired shear stresses. The viscosity of the binding buffer (0.9 cp) is within the range of viscosity (0.95±0.15 cp) of ascitic fluid in patients with various ascitic etiologies^48. The motion of cancer spheroids was observed under fluorescent microscope (Nikon ECLIPSE Ti) and serial time lapse images (1 image sec^−1) were captured for 30 sec. More than three randomly chosen areas (4× objective) were captured for each treatment.
(§3) The motion of cancer spheroids under flow was analyzed offline using Image J (National Institutes of Health) and used for the classification of interactions as described^49. Briefly, cancer spheroids that tethered to the surface, then detached in the flow were defined as tethering. Cancer spheroids that moved at a velocity below the hydrodynamic velocity for more than one spheroid diameter were defined as rolling. Cancer spheroids that remained stationary for more than one frame during recording were determined as adhesion. Percentage of tethering or adhesion was calculated by dividing the number of tethering or adherent spheroids by the total number of spheroids flew through the field of observation in the 30 sec duration.
(§4) In some experiments, M-CSCs were incubated with or without neuramidase (100 mU, N2876, Sigma-Aldrich), α1-3,4 fucosidase (150 mU, P0769S, New England BioLabs), OSGE (100 μg mL^−1, CLE100, Cedarlane) or PNGase (10 U mL^−1, P0704S, New England BioLabs) according to the manufacturer's instructions for 1 h at 37° C. prior staining. To inhibit sulfation, M-CSCs were incubated with sodium chlorate (25 mM, 403016, Sigma-Aldrich) in serum-free medium for 48 h. To functionally block sLe^x, sLe^a or IGF-1R on M-CSCs, M-CSCs were incubated with CSLEX-1 (10 μg mL^−1, 551344, BD Biosciences), anti-CA19-9 (10 μg mL^−1, ab15146, Abcam), anti-IGF-1R (2 μg mL^−1, 24-60, Invitrogen) or isotype antibodies for 1 h at 37° C., respectively. To remove cell surface glycoprotein, M-CSCs were incubated with Trypsin/EDTA solution (0.05%, 25300054, Gibco) for 5 min and neutralized with the complete medium. To inhibit glycolipid synthesis, M-CSCs were cultured with or without DL-PPMP (2.5 μM, sc-205655, Santa Cruz) in serum-free medium for 5 days. To test the involvement of RTKs in mediating CSCs adhesion, M-CSCs were treated with or without small molecule inhibitors as indicated in the FIG. 13 before perfusion. All CSC perfusion experiments were repeated with HPMCs isolated from at least 3 different patients.

P-selectin-Fc = assay: Microfluidic perfusion assay of M-CSCs on P-selectin-Fc recombinant protein-coated channels; assay type: cell-based; details: for effect on M-CSCs binding/adhesion to P-selectin-Fc: M-CSCs treated before perfusion, result in words
Procedure: as §1, §2, §3, §4

[1] = biological target: P-selectin recombinant protein (Homo sapiens, UniProt P16109); assay: Flow adhesion assay of HM and NM cells on P-selectin recombinant protein; assay type: cell-based; details: 5 mM EDTA solution, shear stress 1 dynes/cm^2 for 1 min
Text: FIG. 9A-9E show results of flow adhesion assay. (A) Transient velocities of representative cells on P-selectin recombinant protein. Triangles represent a rolling adhesion highly metastatic (HM) cells; Circles represent a non-interaction non-metastatic (NM) cells quickly passed through the channel. […] (B) Rolling percentage of NM and HM cells on P-selectin recombinant protein. (C) Cumulative frequency rolling velocity histograms. (D) Adhesion percentage of NM and HM cells on P-selectin recombinant protein. HM or NM cells were introduced into flow chambers pre-coated with […] P-selectin-Fc chimera or Fc control at shear stress of 0.1 dyne/cm2. Cell movement was observed under microscope and captured with high speed camera. Cancer cells rolling velocity was calculated by dividing moving distance with duration. […] Adhesion was defined as cancer cells stop moving for more than one second during recording. The rolling or adhesion fraction was quantified through dividing the number of rolling or adhesive cells by the total number of cells traveled into the field of observation area for 30 seconds. (E) Adhesion percentage of NM and HM cells on P-selectin-Fc chimera at shear stress of 0.05-0.15 dyne/cm2. Data are presented as mean±S.E.; *P<0.05, **P<0.01.
FIG. 10A-10B show EDTA detachment assay. […] (A) A brightfield microscope image of captured HM cells. […]

[2] = shear stress around 1 dynes cm^-2

Chain of P-selectin recombinant protein (P16109 with tags, fused parts or gaps limits assumed, species assumed): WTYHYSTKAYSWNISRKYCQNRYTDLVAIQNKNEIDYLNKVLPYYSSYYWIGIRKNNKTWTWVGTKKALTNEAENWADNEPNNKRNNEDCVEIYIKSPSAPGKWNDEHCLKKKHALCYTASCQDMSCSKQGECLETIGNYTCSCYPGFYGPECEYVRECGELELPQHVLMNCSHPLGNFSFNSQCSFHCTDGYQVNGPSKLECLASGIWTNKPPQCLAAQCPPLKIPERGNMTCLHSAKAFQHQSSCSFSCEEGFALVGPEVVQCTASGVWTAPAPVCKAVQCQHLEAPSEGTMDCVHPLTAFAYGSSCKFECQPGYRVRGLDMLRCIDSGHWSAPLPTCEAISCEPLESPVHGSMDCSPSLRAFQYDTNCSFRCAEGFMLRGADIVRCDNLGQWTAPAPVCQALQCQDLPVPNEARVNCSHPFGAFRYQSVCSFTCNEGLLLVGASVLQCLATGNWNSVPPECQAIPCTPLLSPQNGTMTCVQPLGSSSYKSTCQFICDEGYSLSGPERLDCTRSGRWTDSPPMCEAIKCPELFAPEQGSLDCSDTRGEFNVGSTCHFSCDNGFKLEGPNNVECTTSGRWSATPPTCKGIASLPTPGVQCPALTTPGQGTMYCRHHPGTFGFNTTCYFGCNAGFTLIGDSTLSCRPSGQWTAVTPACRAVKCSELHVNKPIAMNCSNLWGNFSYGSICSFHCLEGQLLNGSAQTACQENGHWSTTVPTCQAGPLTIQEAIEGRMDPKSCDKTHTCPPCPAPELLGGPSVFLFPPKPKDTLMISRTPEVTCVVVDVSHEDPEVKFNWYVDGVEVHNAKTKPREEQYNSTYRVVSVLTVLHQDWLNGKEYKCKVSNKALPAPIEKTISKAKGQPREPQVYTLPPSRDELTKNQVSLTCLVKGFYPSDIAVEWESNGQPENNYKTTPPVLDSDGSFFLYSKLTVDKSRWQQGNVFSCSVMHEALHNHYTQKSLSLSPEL

In the case of `COc1ccc(C2CC(c3c(O)cc(C)oc3=O)=NCCS2)c(OC)c1` (stereo not drawn) [KF38789], the “extent of tumor metastases on the omentum, mesenteries and peritoneal wall” value (P-selectin) is reported as “significantly inhibited”.

In the case of `O=c1c(-c2ccc(O)cc2)coc2cc(O)cc(O)c12` [genistein], the “effect on M-CSCs binding/adhesion to HPMCs” value (M-CSC-HPMC interaction) is reported as “marked decrease” and the “effect on M-CSCs binding/adhesion to P-selectin-Fc” value (P-selectin-Fc) is reported as “marked decrease”.

With `CC(C)(C)c1cc(C=C(C#N)C#N)cc(Br)c1O` [AG1024] the “effect on M-CSCs binding/adhesion to HPMCs” value (M-CSC-HPMC interaction) was “marked decrease” and the “effect on M-CSCs binding/adhesion to P-selectin-Fc” value (P-selectin-Fc) was “marked decrease”.

`[Na+].[O-][Cl+2]([O-])[O-]` [sodium chlorate] was tested, and the “effect on M-CSCs binding/adhesion to HPMCs” value (M-CSC-HPMC interaction) was “did not alter the binding activity” and the “effect on M-CSCs binding/adhesion to P-selectin-Fc” value (P-selectin-Fc) was “did not alter the binding activity”.

With `CCCCCCCCCCCCCCCC(=O)N[C@H](CN1CCOCC1)[C@H](O)c1ccccc1` [PPMP] the “effect on M-CSCs binding/adhesion to HPMCs” value (M-CSC-HPMC interaction) was “had no effect” and the “effect on M-CSCs binding/adhesion to P-selectin-Fc” value (P-selectin-Fc) was “had no effect”.

`O=C(O)CN(CCN(CC(=O)O)CC(=O)O)CC(=O)O` [EDTA] was tested, and the “effect on M-CSCs binding/adhesion to HPMCs” value (M-CSC-HPMC interaction) was “inhibited the adhesion”, the “detachment of adherent M-CSCs from HPMCs” value (M-CSC-HPMC interaction; [2]) was “easily detach” and the “detachment of adherent M-CSCs from P-selectin chimera” value (P-selectin-Fc; [2]) was “easily detach”. The “detachment of captured HM cells from P-selectin-coated channel bottom” value [1] was “easily detached”.

In the case of trypsin, the “effect on M-CSCs binding/adhesion to HPMCs” value (M-CSC-HPMC interaction) is reported as “almost completely abolished the adhesion” and the “effect on M-CSCs binding/adhesion to P-selectin-Fc” value (P-selectin-Fc) is reported as “almost completely abolished the adhesion”.
